Assay [1] has as its system T1, ALS from young tomato leaves.
T1 construct: gene ALS1; native, partially purified extract of young tomato leaves
Nature of the assay: colorimetric acetoin assay (creatine/alpha-naphthol, […] nm), partially purified extract. The class given is biochemical, Solanum lycopersicum. The following applies: young leaf enzyme; 167 mM pyruvate, 16.7 mM MgCl2, 1.67 mM TPP, 16.6 μM FAD, pH 7.0, 37°C, 60 min; read-out: ID50 (the source's name).

The test system of assay [2] is T2, ALS (P. aegyptiaca acetolactate synthase).
T2 construct: single gene copy found; predicted 42-residue chloroplast transit peptide
The description is as above. It is filed as biochemical, Phelipanche aegyptiaca. The conditions noted are these: flowering shoot enzyme; 167 mM pyruvate, 16.7 mM MgCl2, 1.67 mM TPP, 16.6 μM FAD, pH 7.0, 37°C, 60 min; read-out: ID50 (the source's name).

Assay [3] concerns T3, EPSPS (P. aegyptiaca 5-enolpyruvylshikimate-3-phosphate synthase).
T3 construct: single gene copy found; predicted 64-residue chloroplast transit peptide
Nature of the assay: colorimetric phosphate release assay ([…] nm), partially purified extract. The class given is biochemical, Phelipanche aegyptiaca. The following applies: callus enzyme; 1 mM shikimate-3-phosphate (natural substrate), 0.1 mM phosphoenolpyruvate, 500 mM MES pH 5.5, 2 mM DTT, 30°C, 15 min; read-out: ID50 (the source's name).

For `Cc1cnc(C2=NC(C)(C(C)C)C(=O)N2)c(C(=O)O)c1` (centres unmarked) [imazapic], the IC50 in assay [1] is around 470 nM; in assay [2], 2070 ± 70 nM. For the compound `O=C(O)CNCP(=O)(O)O` [glyphosate], the IC50 in assay [3] was around 8000 nM. Regarding `CCS(=O)(=O)c1cccnc1S(=O)(=O)NC(=O)Nc1nc(OC)cc(OC)n1` [rimsulfuron], in assay [2], the IC50 stood at 110 ± 30 nM. `CC(C)C1(C)N=C(c2ncccc2C(=O)O)NC1=O` (centres unmarked) [imazapyr]: the IC50 in assay [2] came to 11600 ± 1200 nM.

For the origin of these results see article PMC5415608, “The Effects of Herbicides Targeting Aromatic and Branched Chain Amino Acid Biosynthesis Support the Presence of Functional Pathways in Broomrape” (Frontiers in Plant Science, 2017).
